# Literature values in US8916612B2, “Agmatine containing dietary supplements, nutraceuticals, and foods” (priority 2008, dated 2014).
# Tested on: mice, rats, dogs, calves and monkeys
# Details: variable dose ranges and regimens; cited from earlier work
smiles,measurement,value
N=C(N)NCCCCN [agmatine],Toxic effects during or after oral intake,No toxic effects
